Patent publication US20250361234A1 (NICO THERAPEUTICS, INC., priority 2022, published 2025)

Molecular target: T1, full-length SARM1 (FL-SARM1) (Homo sapiens, UniProt Q6SZW1)
T1 sequence (Q6SZW1 28-724): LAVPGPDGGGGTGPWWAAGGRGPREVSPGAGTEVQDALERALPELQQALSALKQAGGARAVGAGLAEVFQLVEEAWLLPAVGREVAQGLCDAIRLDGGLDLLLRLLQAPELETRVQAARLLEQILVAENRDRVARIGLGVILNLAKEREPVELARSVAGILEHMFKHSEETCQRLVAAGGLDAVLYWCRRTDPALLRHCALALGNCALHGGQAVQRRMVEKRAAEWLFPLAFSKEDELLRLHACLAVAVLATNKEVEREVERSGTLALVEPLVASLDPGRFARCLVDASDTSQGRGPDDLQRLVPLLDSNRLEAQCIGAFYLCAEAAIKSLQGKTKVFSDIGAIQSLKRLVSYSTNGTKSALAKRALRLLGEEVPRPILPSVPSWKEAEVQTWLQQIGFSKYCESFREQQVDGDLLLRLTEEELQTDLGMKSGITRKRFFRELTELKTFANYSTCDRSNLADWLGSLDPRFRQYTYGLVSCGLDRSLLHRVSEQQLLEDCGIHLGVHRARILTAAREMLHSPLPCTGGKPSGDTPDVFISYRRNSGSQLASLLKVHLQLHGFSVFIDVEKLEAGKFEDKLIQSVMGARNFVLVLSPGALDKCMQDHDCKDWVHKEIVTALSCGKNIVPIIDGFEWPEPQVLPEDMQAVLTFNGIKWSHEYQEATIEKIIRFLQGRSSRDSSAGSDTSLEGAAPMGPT
Assay: FL-SARM1 cellular lysate assay (NAD/NADH-Glo readout of remaining NAD+)
Conditions: SARM1 cellular lysate from transfected HEK293T cells, NAD+ and NMN, 11 point curve

Cc1ccc(NC(=O)[C@H]2C[C@H](C3CC3)C2)cc1-c1cncc(F)c1 [Example 108, trans-3-cyclopropyl-N-[3-(5-fluoropyridin-3-yl)-4-methylphenyl]cyclobutane-1-carboxamide]
IC50 (Activity (μM)): 5.3 µM
IC50 (Activity): 1 to 10 µM

Cc1ccc(NC(=O)[C@H]2C[C@@H](C3CC3)C2)cc1-c1cncc(F)c1 [Example 109, cis-3-cyclopropyl-N-[3-(5-fluoropyridin-3-yl)-4-methylphenyl]cyclobutane-1-carboxamide]
IC50 (Activity (μM)): 0.5 µM
IC50 (Activity): 0.0001 to 1 µM

Cc1ccc(NC(=O)[C@@H]2CC2(F)F)cc1-c1cncc(F)c1 [Example 110, (S)-2,2-difluoro-N-(3-(5-fluoropyridin-3-yl)-4-methylphenyl)cyclopropanecarboxamide]
IC50 (Activity (μM)): 8.2 µM
IC50 (Activity): 1 to 10 µM

Cc1ncc(-c2cc(NC(=O)[C@@H]3CC3(F)F)ccc2C)cn1 [Example 111, (1S)-2,2-difluoro-N-[4-methyl-3-(2-methylpyrimidin-5-yl)phenyl]cyclopropane-1-carboxamide]
IC50 (Activity (μM)): 20.4 µM
IC50 (Activity): > 10 µM

Cc1ccc(NC(=O)[C@@H]2CC2(F)F)cc1-c1cccnc1C [Example 112, (1S)-2,2-difluoro-N-[4-methyl-3-(2-methylpyridin-3-yl)phenyl]cyclopropane-1-carboxamide]
IC50 (Activity (μM)): 33.3 µM
IC50 (Activity): > 10 µM

Cc1ccc(NC(=O)[C@@H]2CC2(F)F)cc1-c1cnc(C(F)(F)F)nc1 [Example 113, (1S)-2,2-difluoro-N-[4-methyl-3-[2-(trifluoromethyl)pyrimidin-5-yl]phenyl]cyclopropane-1-carboxamide]
IC50 (Activity (μM)): 34.4 µM
IC50 (Activity): > 10 µM

Cc1ccc(NC(=O)CC2CCC2)cc1-c1cccnc1 [Example 114, 2-cyclobutyl-N-(4-methyl-3-pyridin-3-ylphenyl)acetamide]
IC50 (Activity (μM)): 4.3 µM
IC50 (Activity): 1 to 10 µM

Cc1cncc(-c2cc(NC(=O)N3C4CCCC3C4)ccc2C)c1 [Example 115, N-[4-methyl-3-(5-methylpyridin-3-yl)phenyl]-6-azabicyclo[3.1.1]heptane-6-carboxamide]
IC50 (Activity (μM)): 0.1 µM
IC50 (Activity): 0.0001 to 1 µM

Cc1ccc(NC(=O)N2C3CCCC2C3)cc1-c1cncc(C(F)(F)F)c1 [Example 116, N-[4-methyl-3-[5-(trifluoromethyl)pyridin-3-yl]phenyl]-6-azabicyclo[3.1.1]heptane-6-carboxamide]
IC50 (Activity (μM)): 0.1 µM
IC50 (Activity): 0.0001 to 1 µM

Cc1ccc(NC(=O)N2C3CCCC2C3)cc1-c1cncc(Cl)c1 [Example 117, N-[3-(5-chloro-3-pyridyl)-4-methyl-phenyl]-6-azabicyclo[3.1.1]heptane-6-carboxamide]
IC50 (Activity (μM)): 0.03 µM
IC50 (Activity): 0.0001 to 1 µM

Cc1ccc(NC(=O)CC2CCC2)cc1-c1cncnc1 [Example 118, 2-cyclobutyl-N-(4-methyl-3-pyrimidin-5-ylphenyl)acetamide]
IC50 (Activity (μM)): 13.9 µM
IC50 (Activity): > 10 µM

Cc1ccc(NC(=O)OC2CCC2)cc1-c1cncc(F)c1 [Example 126, cyclobutyl (3-(5-fluoropyridin-3-yl)-4-methylphenyl)carbamate]
IC50 (Activity (μM)): 20.7 µM
IC50 (Activity): > 10 µM

Cc1ccc(NC(=O)OC2CCC2)cc1-c1cccnc1 [Example 129, cyclobutyl N-(4-methyl-3-pyridin-3-ylphenyl)carbamate]
IC50 (Activity (μM)): 30.9 µM
IC50 (Activity): > 10 µM

Cc1ccc(NC(=O)N2C3CCCC2C3)cc1-c1cnnnc1 [Example 130]
IC50 (Activity (μM)): 15.5 µM
IC50 (Activity): > 10 µM

COc1ccc(-c2cc(NC(=O)N3[C@@H]4C[C@@H](C)C[C@H]3C4)c(F)cc2Cl)cn1 [Example 131, cis-N-[4-chloro-2-fluoro-5-(6-methoxy-3-pyridinyl)phenyl]-3-methyl-6-azabicyclo[3.1.1]heptane-6-carboxamide]
IC50 (Activity (μM)): 0.7 µM
IC50 (Activity): 0.0001 to 1 µM
